Assay results reported in patent US9580465B2, “Tissue protective peptides and peptide analogs for preventing and treating diseases and disorders associated with tissue damage” (ARAIM PHARMACEUTICALS, INC., priority 2008, dated 2017).
Entries after “also recorded” stand apart in the source; their conditions may differ. Square brackets hold non-standard residues; d marks the D form. pGlu = O=C1CC[C@@H](C(=O)O)N1

How the values were obtained:
[1] = tested on: total body gamma radiation; test: Radiomitigating activity in hematopoietic screening assay; assay type: in vivo, C57BL/6 mice; settings: for survival at day 30: 30 ug/kg subcutaneously from 24 hrs after irradiation, daily for 29 days
Method: The ability of peptides useful in the current therapeutic method to mitigate the effects of a radioactive agent on the hematopoietic system was evaluated in a murine model of radiation injury. Briefly, 80 C57BL/6 mice (50% female and 50% male, 15-28 gm) were used in the study were divided into two groups.
In both groups the radiation was administered to the mice as a single uniform total body dose of gamma radiation from a ^137Cs radiation source (GammaCell 40; Nordion International, Kanata, Ontario, Canada) at an exposure rate of 65-69 cGy/minute+/−2.5 cGy.
Group A received a LD70/30 dose of radiation (796 cGy) and then 20 of the mice were administered Peptide ID (30 ug/kg subcutaneously) at 24 hrs after irradiation and then once a day for 29 days. The remaining 20 mice (control group) received PBS (subcutaneously) at 24 hrs after irradiation and then once a day for 29 days.
The remaining 20 mice (control group) received PBS (subcutaneously) at 24 hrs after irradiation and then once a day for 29 days.
The mice were monitored for survival once a day until signs of early euthanasia appeared, then twice/day until day 30.

[2] = tested on: full-thickness skin wounds; test: Full thickness punch biopsy model of wound healing; assay type: in vivo, Sprauge-Dawley rats; settings: 24 nmol/kg of bw s.c. daily for 10 days; FIG. 8
Method: A full thickness punch biopsy model of wound healing was used to evaluate Peptide ID. In this experiment, 3.5 mm-diameter full-thickness skin wounds were placed at the corners of a 3 cm-wide square on the shaved and depilated scapular region of Sprauge-Dawley rats. Peptide ID (24 nmol/kg of bw, 9 rats) or PBS (9 rats) was administered subcutaneously daily for 10 days.

UT-7epo cells = test: UT-7epo proliferation/survival assay of erythropoietic potency; assay type: cell-based, human; settings: 5 pM to 50 nM, 48 h incubation, WST-I reagent; FIG. 1
Method: The cells were maintained in 75 cm^2 flasks with 20 ml of medium/flask in a humidified incubator with 5% CO2 at 37° C. for 48 h. On day two of the assay, i.e., at 48 h, the cells were transferred from the flask into a 50-ml conical tube and centrifuged at 1,000 rpm for 5 minutes at room temperature. The supernatant was discarded and the cells were washed two times with 10 ml of starvation media (3% donor calf serum, 4 mM L-glutamine). The cells were then re-suspended in starvation media, using up and down pipette action to obtain a single cell suspension. The re-suspended cells were diluted with starvation media to obtain a density of 4×10^5 cells/ml, and plated at a total culture volume of 10 ml per 25 cm^2 flask. Following a 4 h incubation, the cells were again transferred to a 50-ml conical tube.
A series of 10 fold dilutions in RPMI 1640 medium containing 3% serum was used to generate concentrations of test compounds from 5 pM to 50 nM. Following a further for 48 h incubation, a solution of […] WST-I Cell Proliferation Reagent (Roche) was added to each well, and incubated for 1 hour at 37° C. in CO2. After mixing for 1 minute, the plate was read in a plate reader (absorption at 450 nm, subtracted from background absorption at 650 nm).

histamine = test: Histamine induced wheal formation, persistence after single dose; assay type: in vivo, rats; settings: FIG. 16
Method: The ability of Peptide ID to reduce plasma extravasation (wheal) induced by intradermal histamine administration was evaluated in rats. Animals were pre-administered Evans Blue dye (which binds tightly to albumin) to provide a visual marker of vascular leak. To determine the persistence of peptide IG activity, at various time periods after Peptide ID administration (30 μg/kg, administered intravenously), an intradermal dose of 0.12 μg histamine was administered, and the extent of dye leak quantitated by planimetry performed on digital photographs obtained 15 minutes following histamine placement, a time at which wheal surface area is greatest. Each animal was tested at only a single time point to avoid influence of histamine administration on subsequent responses.

“UEQLERALNSS ([pGlu]EQLERALNSS-OH; also: acetate/ammonium mixed salt) [Peptide ID, first glutamine replaced with pyroglutamate]” was tested, and the “survival at day 30” value ([1]; 796 cGy (LD70/30), FIG. 21A) was 45%, the “thirty-day survival and overall survival time versus PBS” value ([1]; 796 cGy and 831 cGy, 30 ug/kg subcutaneously daily) was “significantly increased the overall survival time” and the “survival at day 30” value ([1]; 831 cGy (LD90/30), FIG. 21B) was 20%. The “area of open wound over treatment” value [2] was “faster healing; also recorded: healed more rapidly”, the “proliferation of UT-7 EPO cells (erythropoietic activity)” value (UT-7epo cells) was “no erythropoeitic activity; also recorded: did not result in proliferation of the cells” and the “persistence of the suppressive effect on wheal formation” value (histamine; following a single dose of 30 μg/kg intravenously) was “up to 24 hours”. For the same sequence, the “wheal formation (plasma extravasation)” value (histamine; single dose 30 μg/kg intravenously before 0.12 μg intradermal histamine) was “suppress wheal formation”.
